Assay results as given in the NIST ThermoML archive (doi:10.1016/j.tca.2014.06.026).

Experiment: xn = mol fraction of the nth substance listed
Settings: 101 kPa, Liquid; for speed of sound: Frequency=2 MHz, Sing-around technique in a fixed-path interferometer; for viscosity: Oscillating disk viscometry; for mass density: Vibrating tube method

OC1CCCCC1 [cyclohexanol] + CN1CCCC1=O
Settings	mass density [kg/m3]	speed of sound [m/s]	viscosity [mPa·s]
303.15 K, x2 = 0	941.32	1443.2	41.07
303.15 K, x2 = 0.1088	952.25	1462.3	36.8
303.15 K, x2 = 0.2155	962.68	1480.5	32.6
303.15 K, x2 = 0.3201	973.14	1495.7	28.48
303.15 K, x2 = 0.4228	983.38	1508.8	24.44
303.15 K, x2 = 0.5235	992.24	1520.5	20.47
303.15 K, x2 = 0.6223	999.61	1530.5	16.55
303.15 K, x2 = 0.7194	1005.72	1538.4	12.7
303.15 K, x2 = 0.8146	1011.65	1544.3	8.912
303.15 K, x2 = 0.9081	1017.47	1549.2	5.186
308.15 K, x2 = 0	937.23	1419.6	27.95
308.15 K, x2 = 0.1088	948.65	1440.8	25.09
308.15 K, x2 = 0.2155	959.48	1458.7	22.27
308.15 K, x2 = 0.3201	970.04	1473.4	19.52
308.15 K, x2 = 0.4228	979.96	1486.2	16.81
308.15 K, x2 = 0.5235	988.83	1497.5	14.15
308.15 K, x2 = 0.6223	996.39	1506.9	11.52
308.15 K, x2 = 0.7194	1002.69	1515.1	8.928
308.15 K, x2 = 0.8146	1008.39	1521.2	6.381
308.15 K, x2 = 0.9081	1014.23	1525.2	3.878
313.15 K, x2 = 0	933.48	1395.2	16.66
313.15 K, x2 = 0.1088	945.29	1418.3	15.01
313.15 K, x2 = 0.2155	956.55	1436.2	13.39
313.15 K, x2 = 0.3201	967.18	1450.8	11.81
313.15 K, x2 = 0.4228	976.72	1463.7	10.25
313.15 K, x2 = 0.5235	985.29	1475.1	8.714
313.15 K, x2 = 0.6223	992.87	1484.6	7.194
313.15 K, x2 = 0.7194	999.41	1492.4	5.69
313.15 K, x2 = 0.8146	1005.24	1498.2	4.211
313.15 K, x2 = 0.9081	1010.33	1500.6	2.76
318.15 K, x2 = 0	928.11	1370.8	8.888
318.15 K, x2 = 0.1088	940.43	1395.7	8.064
318.15 K, x2 = 0.2155	952.24	1413.7	7.26
318.15 K, x2 = 0.3201	963.21	1428.6	6.472
318.15 K, x2 = 0.4228	972.85	1441.9	5.694
318.15 K, x2 = 0.5235	981.32	1453.3	4.926
318.15 K, x2 = 0.6223	988.87	1462.8	4.163
318.15 K, x2 = 0.7194	995.46	1471.1	3.406
318.15 K, x2 = 0.8146	1001.47	1476.7	2.658
318.15 K, x2 = 0.9081	1006.79	1477.6	1.924

C1=CCCCC1 [cyclohexene] + CN1CCCC1=O
Settings	mass density [kg/m3]	speed of sound [m/s]	viscosity [mPa·s]
303.15 K, x2 = 0	801.81	1252.1	0.581
303.15 K, x2 = 0.1052	818.56	1267.5	0.612
303.15 K, x2 = 0.2091	834.84	1285.6	0.653
303.15 K, x2 = 0.3119	851.21	1307.1	0.698
303.15 K, x2 = 0.4135	868.75	1330.4	0.748
303.15 K, x2 = 0.514	889.05	1356.2	0.812
303.15 K, x2 = 0.6134	912.45	1384.5	0.897
303.15 K, x2 = 0.7116	938.12	1417.6	1.009
303.15 K, x2 = 0.8088	964.81	1456.8	1.148
303.15 K, x2 = 0.9049	992.11	1502.7	1.315
308.15 K, x2 = 0	797.25	1224.8	0.549
308.15 K, x2 = 0.1052	811.04	1240.5	0.579
308.15 K, x2 = 0.2091	827.32	1258.2	0.618
308.15 K, x2 = 0.3119	844.1	1278.6	0.663
308.15 K, x2 = 0.4135	862.03	1301.5	0.715
308.15 K, x2 = 0.514	882.54	1326.4	0.775
308.15 K, x2 = 0.6134	906.06	1355.1	0.853
308.15 K, x2 = 0.7116	931.63	1388.3	0.954
308.15 K, x2 = 0.8088	957.89	1426.8	1.081
308.15 K, x2 = 0.9049	985.56	1472.5	1.235
313.15 K, x2 = 0	792.61	1196.6	0.516
313.15 K, x2 = 0.1052	804.12	1212.4	0.551
313.15 K, x2 = 0.2091	819.12	1230.5	0.587
313.15 K, x2 = 0.3119	836.04	1250.4	0.63
313.15 K, x2 = 0.4135	854.81	1273.5	0.68
313.15 K, x2 = 0.514	875.73	1298.8	0.742
313.15 K, x2 = 0.6134	899.06	1327.1	0.818
313.15 K, x2 = 0.7116	924.14	1360.3	0.914
313.15 K, x2 = 0.8088	950.51	1398.7	1.031
313.15 K, x2 = 0.9049	979.38	1444.1	1.171
318.15 K, x2 = 0	788.02	1169.6	0.488
318.15 K, x2 = 0.1052	798.05	1185.2	0.522
318.15 K, x2 = 0.2091	813.05	1202.2	0.558
318.15 K, x2 = 0.3119	829.52	1222.2	0.597
318.15 K, x2 = 0.4135	847.61	1245.2	0.642
318.15 K, x2 = 0.514	868.15	1270.4	0.698
318.15 K, x2 = 0.6134	891.64	1298.6	0.771
318.15 K, x2 = 0.7116	917.16	1330.3	0.856
318.15 K, x2 = 0.8088	943.71	1369.2	0.956
318.15 K, x2 = 0.9049	972.27	1416.1	1.072

NC1CCCCC1 [cyclohexylamine] + CN1CCCC1=O
Settings	mass density [kg/m3]	speed of sound [m/s]	viscosity [mPa·s]
303.15 K, x2 = 0	857.71	1397.8	1.797
303.15 K, x2 = 0.1171	877.49	1424.2	1.791
303.15 K, x2 = 0.2299	896.91	1448.4	1.789
303.15 K, x2 = 0.3385	915.83	1469.1	1.784
303.15 K, x2 = 0.4432	933.86	1487.8	1.773
303.15 K, x2 = 0.5442	950.84	1504.3	1.754
303.15 K, x2 = 0.6417	966.69	1518.1	1.727
303.15 K, x2 = 0.7358	981.66	1530.2	1.693
303.15 K, x2 = 0.8268	995.81	1540.3	1.648
303.15 K, x2 = 0.9149	1009.73	1548.2	1.592
308.15 K, x2 = 0	853.14	1379.2	1.704
308.15 K, x2 = 0.1171	873.25	1406.8	1.69
308.15 K, x2 = 0.2299	892.71	1429.4	1.678
308.15 K, x2 = 0.3385	911.69	1449.1	1.668
308.15 K, x2 = 0.4432	929.76	1467.1	1.655
308.15 K, x2 = 0.5442	946.83	1483.1	1.636
308.15 K, x2 = 0.6417	962.86	1496.5	1.607
308.15 K, x2 = 0.7358	977.92	1507.7	1.569
308.15 K, x2 = 0.8268	992.5	1517.2	1.522
308.15 K, x2 = 0.9149	1006.41	1524.6	1.47
313.15 K, x2 = 0	848.61	1360.6	1.617
313.15 K, x2 = 0.1171	869.06	1389.2	1.6
313.15 K, x2 = 0.2299	888.52	1411.4	1.588
313.15 K, x2 = 0.3385	907.42	1430.5	1.575
313.15 K, x2 = 0.4432	925.48	1447.6	1.56
313.15 K, x2 = 0.5442	942.64	1462.5	1.541
313.15 K, x2 = 0.6417	958.87	1475.1	1.514
313.15 K, x2 = 0.7358	974.13	1485.7	1.477
313.15 K, x2 = 0.8268	988.74	1494.6	1.432
313.15 K, x2 = 0.9149	1002.53	1500.8	1.38
318.15 K, x2 = 0	844.07	1342	1.506
318.15 K, x2 = 0.1171	864.89	1371.7	1.484
318.15 K, x2 = 0.2299	884.43	1393.8	1.463
318.15 K, x2 = 0.3385	903.34	1412.2	1.442
318.15 K, x2 = 0.4432	921.45	1428.7	1.422
318.15 K, x2 = 0.5442	938.47	1443.2	1.401
318.15 K, x2 = 0.6417	954.68	1455.4	1.375
318.15 K, x2 = 0.7358	970.14	1465.4	1.341
318.15 K, x2 = 0.8268	984.78	1473.6	1.298
318.15 K, x2 = 0.9149	998.55	1477.8	1.251
